This is an account of results in patent publication US10780076B2, “Inhibition of cancer cell motility” (Northwestern University, priority 2014, dated 2020).

One assay has as its target T1, MKK4 (Homo sapiens, UniProt P45985).
T1 sequence (P45985 1-399): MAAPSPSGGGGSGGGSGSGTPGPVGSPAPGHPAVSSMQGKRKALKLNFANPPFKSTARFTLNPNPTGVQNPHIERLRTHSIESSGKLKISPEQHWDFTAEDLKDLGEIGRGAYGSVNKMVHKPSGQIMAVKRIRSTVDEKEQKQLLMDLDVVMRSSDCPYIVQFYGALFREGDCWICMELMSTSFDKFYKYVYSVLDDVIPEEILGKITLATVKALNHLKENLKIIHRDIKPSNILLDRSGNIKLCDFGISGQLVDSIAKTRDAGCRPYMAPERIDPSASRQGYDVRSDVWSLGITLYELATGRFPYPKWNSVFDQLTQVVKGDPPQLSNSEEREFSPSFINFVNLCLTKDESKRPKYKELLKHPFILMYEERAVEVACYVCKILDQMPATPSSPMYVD
The following applies: low nanomolar concentrations; cited from earlier work.

Assay [1] deals with protein phosphorylation (kinome) in PC3-M and PC3 cells. In words: KinomeView phospho-motif antibody screen. The format is cell-based, human. The note with it: 10 μM, 3 days, ±TGFβ. How it is done:
FIG. 14A-D. Proteomic analysis of the effects of KBU2046 on the kinome. Screening for effects on the kinome. PC3-M cells were pre-treated with 10 μM KBU2046, genistein or vehicle control for 3 days, then with ±TGFB, as indicated. Resultant cell lysate, as well as lysate from tumors from mice treated with 150 mg/kg KBU2046 or control mice (from manuscript FIG. 3A), were then probed with the KinomeView® panel of antibodies by Western blot. In instances where KBU2046 was inhibiting protein phosphorylation in cells and in tumors, a repeat experiment of PC3-M cells was conducted. In addition to including PC3-M cells, experiments were expanded to examine effects on PC3 cells. […] (C,D) All other Western blots of phospho-motif antibodies that were evaluated on initial screen. NI=tumor not informative; this denotes a tumor sample that yielded an abnormal coomassie blue staining pattern.
Screening for changes in the kinome induced by KBU2046 were evaluated with the Kinoview™ assay system. […]
The KinomeView® panel of antibodies (Cell Signaling Technology, Inc.) detects established protein phosphorylation motifs, and were was to probe for KBU2046-induced changes in protein phosphorylation (FIG. 5A; FIGS. 14A-D). […] Genistein was evaluated under identical treatment conditions for comparison. […]

Assay [2] concerns array of over 9,000 human proteins. The assay is described as follows: ProtoArray Human Protein Microarray hybridization. Type of assay: binding. Here is the method:
FIGS. 19A-D. KBU2046 binds to intact cells, but not to isolated proteins. (A) Chemical structure of KBU2046 linked to biotin (KBU2046-biotin). […] PC3-M cells were pre-treated with 10 μM KBU2046 or with KBU2046-biotin for three days, and single cell motility assays conducted. Data are the mean±SEM. […] PC3-M cells were labeled with […]+/−10 μM free KBU2046, followed by detection with FITC-streptavidin, and visualization by fluorescent microscopy (with equal exposure times). (D) Protein array hybridization. KBU2046-biotin was hybridized to ProtoArray® Human Protein Microarray's at 0.5 and 10 μM with and without 10-fold excess free KBU2046. Proteins were first sought that met the following criteria, and did so at both 0.5 and 10 μM concentrations of KBU2046-biotin (in the absence of free KBU2046): Z-Score greater than 2.5, Z-Factor greater than 0.5, CI P-value less than 0.05, negative control value <2,000 (relative fluorescence units; RFUs), and a signal/negative control signal of >10 and >5 for 10 μM and 0.5 μM conditions, respectively. This yielded 3 proteins, shown in table, for an initial hit rate of 0.03%. It was then required that free KBU2046 inhibit binding by >75% of the two remaining candidates, eliminating isovaleryl-CoA dehydrogenase (ICD). […] The positive control used in protein arrays was staurosporine. Staurosporine is similar to genistein in that both are small compound natural products that are broad spectrum kinase inhibitors. […] The vast majority of these proteins were kinases. Both HSP90β and CDC37 were present on the protein arrays, and were not bound by KBU2046-biotin.

The test system of assay [3] is PC3-M cells. In words: Single cell motility assay with KBU2046-biotin. Type of assay: cell-based, human. The following applies: 10 μM, three days. Here is the method:
PC3-M cells were pre-treated with 10 μM KBU2046 or with KBU2046-biotin for three days, and single cell motility assays conducted.
FIGS. 23A-C. […] PC3-M cells were pre-treated with 10 μM KBU2046 or with KBU2046-biotin for three days, and single cell motility assays conducted.

In assay [4] the test system is PC3-M cells. In words: Cell labeling with FITC-streptavidin detection. Type of assay: cell-based, human. The note with it: +/−10 μM free KBU2046.

In the case of `O=c1c(-c2ccc(O)cc2)coc2cc(O)cc(O)c12` [genistein, 4′,5,7-trihydroxyisoflavone], the “inhibition of MKK4 kinase activity (literature)” value at MKK4 is listed as “inhibited the kinase activity”. The “changes in protein phosphorylation” value in assay [1] is given as “widespread changes in protein phosphorylation”.
Turning to `CN[C@@H]1C[C@H]2O[C@@](C)([C@@H]1OC)n1c3ccccc3c3c4c(c5c6ccccc6n2c5c31)C(=O)NC4` [staurosporine, reference compound], the “number of proteins bound at >/=10 fold above background” value in assay [2] (positive control) came out at 214 proteins.
For `O=C(CCCC[C@@H]1SC[C@@H]2NC(=O)N[C@@H]21)NCCOCCOCCOCCOc1ccc2c(c1)OCC(c1ccc(F)cc1)C2=O` (stereo partly shown) [KBU2046-biotin], in the assay on PC3-M cells [3], the “biological activity in single cell motility” value is “biologically active”. Moreover, the “binding to protein array” value in assay [2] (0.5 and 10 μM) is listed as “lack of binding”. Moreover, the “initial hit rate on protein array” value in assay [2] (0.5 and 10 μM, before competition criterion) is listed as 0.03%. The “labeling of intact cells” value with PC3-M cells [4] is “labels cells in a manner that can be competed off”.
